Reference: patent US9101161B2, “High-potency sweetener composition with phytoestrogen and compositions sweetened therewith” (The Coca-Cola Company, priority 2006, dated 2015)

What was measured:
[1] = Rate of dissolution in H2O at 25° C. of rebaudioside A polymorph and amorphous forms; format: physicochemical
[2] = Sensory evaluation of sweetness linger, Example Set H (REBA in phosphoric acid solution pH 2.4-2.5); format: in vivo; design: key: 0=no sweetness linger; 1=very slight sweetness linger; 2=slight sweetness linger; 3=moderate sweetness linger; 4=moderately high sweetness linger; 5 high sweetness linger; conditions: 500 ppm REBA (H41: 360 ppm) in carbon-treated water, phosphoric acid (75%) to pH 2.4-2.5, plus additive; scale 0-5
[3] = Sensory evaluation of sweetness linger, Example Set G (REBA in citric acid/potassium citrate composition); format: in vivo; design: key: 0=no sweetness linger; 1=very slight sweetness linger; 2=slight sweetness linger; 3=moderate sweetness linger; 4=moderately high sweetness linger; 5 high sweetness linger; conditions: for sweetness linger: 400 ppm REBA in citric acid/potassium citrate composition equivalent to diet lemon-lime beverage, plus additive, expert panel, scale 0-5, sweetness 3-4 min after water rinse; for Sweetness Linger rating defined for controls: defined by the protocol, sucrose, 500 ppm REBA control sample
Procedure: Sensory evaluation of the samples prepared in Example Set G was carried out under the following protocol, similar to that described hereinabove. In this test protocol, none of the samples were swallowed. All samples were expectorated and the mouth was rinsed with water after the tasting, Immediately upon sensing maximal sweetness, the sample was expectorated, the mouth was rinsed with water and the rate of sweetness decay (“Sweetness Linger”) was measured, where attention was focused on the sweetness 3-4 min after the water rinse. After sample tasting was complete, a salty oyster cracker was chewed followed by a water rinse, and at least 5 minutes followed before tasting the next sample. The sweetness linger was rated by a panel of experts in the sensory evaluation of foods and beverages using the following scale: 0=no sweetness linger, 1=very slight sweetness linger, 2=slight sweetness linger, 3=moderate sweetness linger, 4=moderately high sweetness linger, 5 high sweetness linger.
The “Sweetness Linger” rating for sucrose observed by this protocol is defined as 0. The Sweetness Linger of a 500 ppm of REBA control sample is defined as 5. Experimental samples were tasted by the same protocol, always allowing sufficient time between samples to ensure re-equilibration of the sensory system. Re-tasting of control samples during the course of the experiment was allowed and encouraged.
The comparison taste test was performed between two controls and addition of sweet taste improving additive on the onset and/or sweetness linger.
The effects of formulation change on the sweetness linger of 400 ppm REBA (equivalent to 8 g sucrose) in a citric acid/potassium citrate composition equivalent to that in a diet lemon-lime beverage were evaluated. The sweetness linger rating of this solution was determined to be 5.
8 g of sugar was dissolved in 100 ml of citrate buffer. The sweetness linger rating of this control sample was determined to be 0.

[4] = Sweetness level as sucrose equivalent; conditions: 400 ppm REBA
[5] = format: physicochemical
Procedure: A solution of rebaudioside A (>97% pure by HPLC) was prepared in double distilled water (12.5 gm in 50 mL, 25% concentration) by stirring the mixture at 40° C. for 5 minutes. An amorphous form of rebaudioside A was formed by immediately using the clear solution for spray drying with the Lab-Plant spray drier SD-04 instrument (Lab-Plant Ltd., West Yorkshire, U.K.). The solution was fed through the feed pump into the nozzle atomizer which atomized it into a spray of droplets with the help of a constant flow of nitrogen/air. […] This dry powder (11-12 g, H2O, 6.74%) was discharged continuously from the drying chamber and was collected in a bottle.

Compound | Rate of dissolution in H2O at 25° C. ([1]; H2O, 25° C.) | Rate of dissolution in H2O at 25° C. ([1]; grade in words) | solubility in water at room temperature [5] | sweetness linger [2] | sweetness linger [3] | Sweetness Linger rating defined for controls [3] | sucrose equivalent [4]
OC[C@H]1O[C@@](CO)(O[C@H]2O[C@H](CO)[C@@H](O)[C@H](O)[C@H]2O)[C@@H](O)[C@@H]1O [sucrose] | – | – | – | 0 | 0 | 0 | –
rebaudioside A | – | – | – | 5 | 5 | 5 | 8 g sucrose
rebaudioside A [Form 1] | (<0.2%/60 %/60 minutes | Very low | – | – | – | – | –

Continued, in another order:

Rate of dissolution in H2O at 25° C. ([1]; H2O, 25° C.) | Rate of dissolution in H2O at 25° C. ([1]; grade in words) | solubility in water at room temperature [5] | Compound | sweetness linger [2] | sweetness linger [3] | Sweetness Linger rating defined for controls [3] | sucrose equivalent [4]
> 30 %/5 minutes | High | – | rebaudioside A [Form 3] | – | – | – | –
(<30%/5 %/5 minutes | Intermediate | – | rebaudioside A [Form 2] | – | – | – | –
> 35 %/5 minutes | High | > 35.0% | rebaudioside A [Form 4] | – | – | – | –
